Results as given in patent US20120039917A1, “IMMUNO[…]” (priority 2008, published 2012).
Read-outs that look alike come from different tables or passages of the source.

What was measured:
proliferating T cells [1] = assay: Cell viability measured by Trypan blue exclusion; format: cell-based, human; settings: 10 μM PXD
Procedure: (§1) Immediately prior to experiments, frozen PBMC were thawed, centrifuged at 1400 rpm in a Multifuge 3 s (Heraeus) for 4 min, washed in RPMI+10% FCS and resuspended in T cell medium (RPMI+10% FCS+10 μM 2-mercaptoethanol (Sigma), 1×glutamine, 1×non-essential amino acids (Gibco)) at 2×10^6 cells/mL. Cells (2×10^5) were activated by adding 10 μg/mL anti-CD3 and 5 μg/mL anti-CD28 and 20 U/mL IL-2 per well. Cells were incubated at 37° C. in a humidified incubator maintained at 5% CO2 for 4 to 5 days until large numbers of large spherical aggregates or “bursts” of lymphocytes were observed. Activated proliferating T cells were pooled from the wells for further experiments. Resting T cells were incubated for the same length of time but in the presence of 20 U/mL IL-2 only.
(§2) Proliferating and resting PBMCs were centrifuged at 1400 rpm in a Multifuge 3 s (Heraeus) for 4 min at room temperature, resuspended in fresh T cell medium in 96 U-well plates (200 μL per well at densities of 2×10^6 cells/mL) in the presence of PXD or 0.1% DMSO and incubated in a 5% CO2, 37° C. humidified incubator. Viable cells, as determined by Trypan blue exclusion, were counted in a Neubauer haemocytometer every 24 h for several days.

resting T cells [2] = assay: Cell viability measured by Trypan blue exclusion; format: cell-based, human; settings: 10 μM PXD
Procedure: as §1, §2

proliferating T cells [3] = assay: Cell proliferation measured by MTT reduction; format: cell-based; settings: Homo sapiens, 48 h incubation, read-out: IC50 inhibition of MTT reduction (proliferation)
Procedure: as §1
(§3) MTT reduction was measured as previously described (Berridge et al., 1996) in a microplate format as follows: exponentially growing cells were centrifuged at 1400 rpm in a Multifuge 3 s (Heraeus) for 4 min, washed and resuspended in HBSS buffer. […] After 2 h, 100 μL of lysing buffer was added and formazan crystals dissolved by manual pipetting using a multichannel pipette before measuring A570 in a BMG FLUOstar OPTIMA plate reader. […]

resting T cells [4] = assay: Cell proliferation measured by MTT reduction; format: cell-based; settings: Homo sapiens, 48 h incubation, read-out: IC50 inhibition of MTT reduction (proliferation)
Procedure: as §1, §3

MM-derived RPMI 8226 = assay: Sensitivity of cell types to PXD, viability by AV/PI staining; format: cell-based, human; settings: RPMI 8226, 10 μM PXD for 24 h
Procedure: FIG. 6. Sensitivity of different cell types to PXD. Different cell types were incubated with 10 μM PXD for 24 h and viability was determined by AV/PI staining and reported as [% viable blasts after PXD exposure]/[% viable blasts after 0.1% DMSO exposure]. Percentage values are as follows: AML-derived HL60: 16±5 and HL60p°: 54±6, ALL-derived MOLT-4: 44±4, MM-derived U226: 59±6 and RPMI 8226: 12±4, primary AML blasts: 64±5, primary ALL blasts: 23±4, normal BM: 89±5, proliferating T cells: 69±4, resting T cells: 98±6. Results from cell lines are presented as the average±SEM of at least 3 separate experiments, results from bone marrow samples are presented as the average±SD of single experiments performed in duplicate.
Cell lines were grown in RPMI-1640 medium (GIBCO-BRL, Grand Island, N.Y.) supplemented with 5% (v/v) fetal calf serum, 2 mM […], 25 μg/mL penicillin, 25 μg/mL streptomycin, 50 μg/mL uridine and 1 mM pyruvate to densities of 1-2×10^6 cells/mL (exponential stage), at 37° C. in a humidified incubator maintained at 5% CO2.
Cells were centrifuged at 1400 rpm in a Multifuge 3 s (Heraeus) for 4 min at room temperature, washed in phosphate buffered saline solution, pH 7.3 (PBS) and resuspended in Annexin V binding buffer. […] Staining was analyzed by flow cytometry using a Becton Dickinson Canto II FACS analyser using FlowJo (TreeStar) software.

proliferating T cells [5] = assay: Apoptosis/viability by Annexin V/propidium iodide staining; format: cell-based; settings: Homo sapiens, T-cell
Procedure: as §1
Cells were centrifuged at 1400 rpm in a Multifuge 3 s (Heraeus) for 4 min at room temperature, washed in phosphate buffered saline solution, pH 7.3 (PBS) and resuspended in Annexin V binding buffer. Small aliquots (0.5-1×10^6 cells) were transferred to 1.5 mL tubes and spun at 1400 rpm in a Multifuge 3 s (Heraeus) for 4 min. Most supernatant was removed and 5 μL PI and 5 μL FITC-labelled AV was added to the wet pellets which were vortexed. After 30 min in the dark on ice, 500 μl of AV binding buffer was added, the cells were centrifuged for 2 min at 1400 rpm, washed once with AV binding buffer and resuspended in 300 μL of AV binding buffer in FACS tubes. Staining was analyzed by flow cytometry using a Becton Dickinson Canto II FACS analyser using FlowJo (TreeStar) software.
The extent of apoptosis in resting and proliferating T cells was determined after 24 h exposure to 10 μM PXD (FIG. 2) by AV/PI staining. […] Resting T cells were not affected (FIG. 2D). The percentage of viable proliferating T cells dropped from 74% (FIG. 2F) to 51% after exposure to 10 μM PXD for 24 h (FIG. 2H), whilst the percentage of viable resting T cells was unaltered (FIGS. 2B and D).
In order to investigate whether cells need to be exposed continually to PXD for its effects to manifest, proliferating T cells were exposed to 10 μM PXD for different periods of time, washed cells twice in RPMI and incubated for a further 24 h in fresh T cell medium.

Structure (SMILES): Oc1ccc(C2=Cc3ccc(O)cc3OC2)cc1 [PXD, Isoflav-3-en-4′,7-diol]
- viability (Trypan blue exclusion) (proliferating T cells [1]): severely compromised
- viability (Trypan blue exclusion) (resting T cells [2]): remain viable
- IC50 (proliferating T cells [3]): 5.4 µM
- IC50 (resting T cells [4]): > 200 µM
- [% viable blasts after PXD exposure]/[% viable blasts after 0.1% DMSO exposure] (MM-derived RPMI 8226): 12±4%
- viability at 10 µM (proliferating T cells [5]; 24 h, 10 μM PXD for 24 h, control 74%, read-out: percentage of viable proliferating T cells (AV/PI)): 51%
- viability at 10 µM (proliferating T cells [5]; 24 h, proliferating T cells, 10 μM PXD for 24 h, read-out: [% viable blasts after PXD exposure]/[% viable blasts after 0.1% DMSO exposure]): 69 ± 4%
- viability at 10 µM (proliferating T cells [5]; PXD pre-incubated in 10% FCS, 10 μM final, relative to 0.1% DMSO, read-out: % Viable cells after exposure time 24 h): 70 ± 7.1%
- viability at 10 µM (proliferating T cells [5]; PXD pre-incubated in 10% FCS, 10 μM final, then 24 h, relative to 0.1% DMSO, read-out: % Viable cells after exposure time 1 min): 64 ± 4.6%
- viability at 10 µM (proliferating T cells [5]; PXD pre-incubated in 10% FCS, 10 μM final, then 24 h, relative to 0.1% DMSO, read-out: % Viable cells after exposure time 10 min): 60 ± 7.1%
- viability at 10 µM (proliferating T cells [5]; PXD pre-incubated in 90% FCS, 10 μM final, relative to 0.1% DMSO, read-out: % Viable cells after exposure time 24 h): 69 ± 7.2%
- viability at 10 µM (proliferating T cells [5]; PXD pre-incubated in 90% FCS, 10 μM final, then 24 h, relative to 0.1% DMSO, read-out: % Viable cells after exposure time 1 min): 66 ± 4.2%
- viability at 10 µM (proliferating T cells [5]; PXD pre-incubated in 90% FCS, 10 μM final, then 24 h, relative to 0.1% DMSO, read-out: % Viable cells after exposure time 10 min): 62 ± 5.7%
- viability at 10 µM (proliferating T cells [5]; PXD pre-incubated in 90% Human Serum, 10 μM final, relative to 0.1% DMSO, read-out: % Viable cells after exposure time 24 h): 73.5 ± 9.2%
- viability at 10 µM (proliferating T cells [5]; PXD pre-incubated in 90% Human Serum, 10 μM final, then 24 h, relative to 0.1% DMSO, read-out: % Viable cells after exposure time 1 min): 69 ± 4.4%
- viability at 10 µM (proliferating T cells [5]; PXD pre-incubated in 90% Human Serum, 10 μM final, then 24 h, relative to 0.1% DMSO, read-out: % Viable cells after exposure time 10 min): 72 ± 7.3%
